From patent publication US20210023120A1, “COMPOSITIONS FOR THE DELIVERY OF tRNA AS NANOPARTICLES AND METHODS OF USE THEREWITH” (The Board of Regents of the University of Texas System, priority 2016, published 2021)

System: p53
Experiment: Nanoparticle carrier screen in Calu6 cells (p53 Western blot)
Type: cell-based
Details: nmP53 (R196X), exogenous tRNAArg/OP, 48 hr exposure, FIGS. 6B, 9, 10, 12
Protocol: Calu6 cells were seeded at a density of 500,000 cells per well in a 6-well format and allowed to attach over night. For plasmid DNA, 1 μg was transfected using 3 μl of Lipofectamine 2000 using manufacturer recommend protocols. For tRNA^Arg/RNAiMax, 4 μg was transfected using 3 μl of RNAiMax using manufacturer recommended protocols. Particles were diluted in Opti-MEM (Invitrogen), G418 (50 μg) and PTC124 ([…]) was added directly to the media. Nanoparticles were prepared by mixing all delivery components in ethanol, followed by rapid mixing with tRNA in 10 mM citrate buffer pH 4.3, such that the final mole ratio was 25:1 carrier:siRNA, and the carrier mixture of the formulation consisted of molar ratios 50:38:10:2 carrier: cholesterol: DSPC: PEG-lipid. […] After 48 hr, cells were lysed directly in 2× Sample Buffer ((Tris-HCL 250 mM, pH 6.8, 20% Glycerol, 2.5% SDS, 0.1% Bromophenol blue). Cell lysate proteins were separated by electrophoresis on 10% (wt/vol) polyacrylamide gels using a Tris-glycine buffering system and transferred to polyyinylidene fluoride Immobilon membranes (EMD Millipore). Western blot analysis was performed using primary p53 antibody (Santa Cruz Biotechnology, Inc) actin antibody (EMD Millipore), and secondary antibody IRdye-68ORD (Li-Cor) and imaged/quantified using a Li-Cor Odyssey CLx (Li-Cor).

CN[C@@H]1[C@@H](O)[C@@H](O[C@@H]2[C@@H](O)[C@H](O[C@H]3O[C@H]([C@@H](C)O)[C@@H](O)[C@H](O)[C@H]3N)[C@@H](N)C[C@H]2N)OC[C@]1(C)O [G418]
p53 expression (Western blot): only minimal p53 expression

O=C(O)c1cccc(-c2noc(-c3ccccc3F)n2)c1 [PTC124]
p53 expression (Western blot): only minimal p53 expression
